{"source": "patent US20090026122A1", "about": "“BIOCOMPATIBLE SOLID-PHASE MICROEXTRACTION COATINGS AND METHODS FOR THEIR PREPARATION” (Janusz, priority 2002, published 2009)", "origin": "cited, not measured here", "test_system": "plasma proteins", "conditions": "previously published values", "data": [{"smiles": "CN(C)C(=O)C(CCN1CCC(O)(c2ccc(Cl)cc2)CC1)(c1ccccc1)c1ccccc1", "note": "[Loperamide, loperamide]", "values": [{"measurement": "Plasma Protein Binding % Literature Values (range)", "value": "95-97%"}]}]}
